Series [1] deals with E. coli DNA gyrase A2B2, MG1655 wild type (Escherichia coli, UniProt P0AES4+P0AES6). In kind it is biochemical.
From the text: ATP hydrolysis by DNA gyrase was linked to the oxidation of NADH using a pyruvate Kinase (PK)/lactate dehydrogenase (LDH) coupled enzyme assay and measured at 340 nm on a Spectramax Plus Microplate. […] DMSO was kept constant at 2%.
(§3) Experimental data were fitted and treated with the following equation:
(§4) where L represents the inhibitor concentration, v represents the rate of the ATPase reaction, and v0 represents the rate in absence of inhibitor. The IC50 is deduced from the equation 2:
In series [2] the target is E. coli DNA gyrase A2B2, W751R mutant (Trp751→Arg in DNA gyrase B subunit) (Escherichia coli, UniProt P0AES4+P0AES6, W751R). The note with it: FIG. 18.
Method: ATP hydrolysis by DNA gyrase was linked to the oxidation of NADH using a pyruvate Kinase (PK)/lactate dehydrogenase (LDH) coupled enzyme assay and measured at 340 nm on a Spectramax Plus Microplate. The ATPase assay was similar to that described previously by Pierrat & Maxwell, 2005. Each 100 μL reaction contained 50 mM Tris.HCl (pH 7.5), 24 mM KCl, 5 mM MgCl2, 6.5% (w/w) glycerol, 4 mM dithiotreitol, 0.4 mM NADH, 0.8 mM phosphorenol-pyruvate, 1% (w/w) PK/LDH mixture (Sigma), 51 nM-153 nM gyrase enzyme and the drug tested at varying concentrations. DMSO was kept constant at 2%. The reactions were measured in the presence or absence of linear DNA pBR322 at fixed concentration of 8.4 nM. Reactions were initiated by the addition of 10 mM Mg.ATP and measured at 25° C. over 1.5 hours.
(§5) DNA-dependent ATPase reactions were tested with the wild type enzyme A2B2 and the W751R mutant enzyme. In these DNA-dependent ATPase assays, the concentration of wild type A2B2 is 51 nM, the concentration of W751R mutant enzyme is 106 nM.
Series [3] concerns the target T1, E. coli Topoisomerase IV (Escherichia coli, UniProt P0AFI2+P20083). Nature of the series: biochemical. It counts as biochemical. More on the design: purchased John Innes Enterprises (Norwich, UK).
Method: (§6) Topoisomerase IV-mediated relaxation assays and decatenation assays were performed as previously described (see Peng and Marians, 1993). […] Decatenation assays contained topoisomerase IV (4 nM), 40 mM Tris HCl pH 7.5 at 30° C., 6 mM MgCl2, 10 mM DTT, 1 mM spermidine.HCl, 100 mM potassium glutamate, 0.5 mM ATP, 0.5 mg/mL BSA, 200 ng of kinetoplast DNA, and inhibitor where appropriate.
Series [4] has as its target T1, E. coli Topoisomerase IV. Nature of the series: biochemical. More on the design: purchased John Innes Enterprises (Norwich, UK).
Method: as §6
For series [5], the target named is DNA gyrase MG1655 wild type A2B2 (Escherichia coli, UniProt P0AES4+P0AES6). Nature of the series: biochemical. More on the design: species or system E. coli.
Method: ATP hydrolysis by DNA gyrase was linked to the oxidation of NADH using a pyruvate Kinase (PK)/lactate dehydrogenase (LDH) coupled enzyme assay and measured at 340 nm on a Spectramax Plus Microplate. […] Each 100 μL reaction contained 50 mM Tris.HCl (pH 7.5), 24 mM KCl, 5 mM MgCl2, 6.5% (w/w) glycerol, 4 mM dithiotreitol, 0.4 mM NADH, 0.8 mM phosphorenol-pyruvate, 1% (w/w) PK/LDH mixture (Sigma), 51 nM-153 nM gyrase enzyme and the drug tested at varying concentrations. DMSO was kept constant at 2%. The reactions were measured in the presence or absence of linear DNA pBR322 at fixed concentration of 8.4 nM. Reactions were initiated by the addition of 10 mM Mg.ATP and measured at 25° C. over 1.5 hours.
as §5, §3, §4
The target of a further series is DNA gyrase A2B2 (Escherichia coli, UniProt P0AES4+P0AES6). Nature of the series: biochemical. In kind it is biochemical, E. coli.
In another series the target is DNA gyrase (Escherichia coli, UniProt P0AES4+P0AES6). It counts as biochemical, E. coli. The settings on record: Table 4.
A further series concerns the target T2, Human topoisomerase I (Homo sapiens, UniProt P11387).
T2 construct: purchased TopoGEN Inc. (Port Orange, Fla., USA)
T2 sequence (P11387 1-765): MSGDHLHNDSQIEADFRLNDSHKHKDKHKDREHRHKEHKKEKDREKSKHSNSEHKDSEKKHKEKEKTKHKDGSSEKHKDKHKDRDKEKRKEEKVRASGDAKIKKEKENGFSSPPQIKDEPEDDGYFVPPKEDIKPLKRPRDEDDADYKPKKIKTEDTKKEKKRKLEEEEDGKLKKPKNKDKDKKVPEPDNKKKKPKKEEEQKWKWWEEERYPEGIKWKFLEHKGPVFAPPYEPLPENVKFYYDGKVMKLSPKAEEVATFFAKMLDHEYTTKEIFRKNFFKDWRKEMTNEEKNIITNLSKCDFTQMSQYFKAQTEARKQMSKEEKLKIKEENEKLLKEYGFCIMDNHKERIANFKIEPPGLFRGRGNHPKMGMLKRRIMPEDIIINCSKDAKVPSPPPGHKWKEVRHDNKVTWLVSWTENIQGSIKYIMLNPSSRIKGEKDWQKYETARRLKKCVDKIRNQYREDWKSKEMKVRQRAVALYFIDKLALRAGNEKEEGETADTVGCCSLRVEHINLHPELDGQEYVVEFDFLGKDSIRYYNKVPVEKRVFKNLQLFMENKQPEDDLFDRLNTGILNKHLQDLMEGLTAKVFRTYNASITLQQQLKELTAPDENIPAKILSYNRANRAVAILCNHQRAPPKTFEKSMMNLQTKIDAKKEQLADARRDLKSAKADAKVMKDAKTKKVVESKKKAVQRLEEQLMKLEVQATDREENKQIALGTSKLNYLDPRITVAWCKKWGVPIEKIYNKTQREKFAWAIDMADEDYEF
Nature of the series: Human topoisomerase I-mediated relaxation assay. In kind it is biochemical. The method, then: Human topoisomerase I-mediated relaxation assays were performed as per the manufacturer's instructions. Topoisomerase I (2 nM) was added to reactions containing 10 mM of Tris.HCl, pH 7.9, 150 mM NaCl, 100 μM spermidine.HCl, 5% glycerol, 0.1% BSA, 4.6 nM of […] pBR322 DNA, and inhibitor where appropriate.
(§1) All in vitro reactions were incubated at 37° C. for 30 minutes. The DMSO concentration in each reaction was kept constant at 3.33%. Reactions were quenched with the addition of an equal volume of phenol/chloroform/isoamyl alcohol (25:24:1) and one tenth volume of loading buffer containing 40% sucrose, 100 mM Tris.HCl pH 7.5, 100 mM EDTA, 2 mg/mL bromophenol blue. The proteins were precipitated by vortexing, followed by centrifugation for 5 minutes at 16 000 g. The aqueous phase was loaded onto 1% agarose gels in Tris-acetate and were electrophoresed at 60 V for three hours in Tris-acetate buffer. The gels were stained in 1 μg/mL ethidium bromide. The gels were visualised using UV light and were documented and analysed using Syngene software.

The next series has as its target DNA gyrase W751R A2B2 (Escherichia coli, UniProt P0AES4+P0AES6, W751R). In words: Supercoiling in vitro assay, W751R mutant enzyme. It counts as biochemical, E. coli.
Series [6] deals with Wheatgerm topoisomerase I (Triticum aestivum, UniProt A0A3B6RK19). In words: Wheatgerm topoisomerase I-mediated relaxation assay. It counts as biochemical. The method, then:
Wheatgerm topoisomerase I-mediated relaxation assays were performed as per the manufacturer's instructions. Topoisomerase I (2 nM) was added to reactions containing 50 mM Tris. HCl pH 7.5, 50 mM NaCl, 0.1 mM EDTA, 1 mM DTT, 20% glycerol, 4.6 nM of […] pBR322 DNA, and inhibitor where appropriate.
as §1

The target of series [7] is DNA gyrase (MG 1655 A2B2) (Escherichia coli, UniProt P0AES4+P0AES6). In words: biochemical. More on the design: species or system E. coli.
Method: (§7) GyrA and GyrB were added to a solution containing 35 mM Tris.HCl (pH, 7.5), 24 mM KCl, 4 mM MgCl2, 1.8 mM spermidine, 6.5% glycerol, 0.36 mg/mL BSA, 9 μg/mL tRNA, 5 mM DTT, 2 mM ATP and 24 nM relaxed pBR322 DNA. […] The reactions were incubated at 25° C., and at each time point 30-μl aliquots were quenched with 1 μL of 10% SDS. An equal volume of chloroform/isoamyl alcohol (24:1) and a half volume of loading buffer STEB (40% sucrose/100 mM Tris.HCl, pH 7.5/100 mM EDTA/2 mg/ml bromophenol blue) were added, and the mixtures then were vortexed and centrifuged for 1 min at 13,000 rpm. The aqueous phase was loaded onto 1% agarose, TAE (40 mM Tris-acetate, 1 mM EDTA) gels and were run at either 30 V overnight in TAE (in the cold room) or 70 V for 2.5 hours. The gels were stained for about 20 min in TAE containing 1 μg/ml ethidium bromide followed by destaining in multiple washes of TAE.
In series [8] the target is T3, Human topoisomerase IIα (Homo sapiens, UniProt P11388). In words: Human Topoisomerase IIα decatenation assay. In kind it is biochemical. More on the design: purchased TopoGEN Inc. (Port Orange, Fla., USA). The method, then:
(§2) Human Topoisomerase IIα-mediated relaxation assays and decatenation assays were performed as per the manufacturer's instructions in a total of 20 μL. Relaxation assays contained Topoisomerase IIα (4.3 nM), 50 mM Tris.HCl pH 8,120 mM KCl, 10 mM MgCl2, 0.5 mM DTT, 0.5 mM ATP, 4.6 nM of supercoiled pBR322 DNA, and inhibitor where appropriate. Decatenation assays substituted the supercoiled DNA with 200 ng catenated kinetoplast DNA.
as §1

For series [9], the target named is T3, Human topoisomerase IIα. In words: Human Topoisomerase IIα-mediated relaxation assay. In kind it is biochemical. More on the design: purchased TopoGEN Inc. (Port Orange, Fla., USA). The settings on record: Topo IIα Human, R (relaxation reaction) IC50. The method, then: as §2, §1
A further series has as its system HeLa cells. Nature of the series: MTT cell viability assay, HeLa. In kind it is cell-based, human. The note with it: Homo sapiens, HeLa; 24 hours, MTT; read-out: In vivo HeLa Cells, approximate IC50.
The target of series [10] is T3, Human topoisomerase IIα. Nature of the series: Human topoisomerase IIα-mediated relaxation assay. In kind it is biochemical. More on the design: purchased TopoGEN Inc. The settings on record: topoisomerase assays (FIG. 27). The method, then: as §2, §1
In another series the test system is HT-29 cells. In words: MTT cell viability assay, HT-29. In kind it is cell-based, human. The settings on record: Homo sapiens, HT-29; 24 hours, MTT; read-out: In vivo HT29 Cells, approximate IC50.

Results on 3 compounds are retold here after US20080234132A1, “Microcin B17 Analogs And Methods For Their Preparation And Use” (priority 2004, published 2008).

≈ marks a conversion by molar mass, not a printed value. *1 amine or outer side, *2 acyl side, *3 side chain or, on linkers, in order; H or OH if unused. Where a SMILES comes first, the peptide text is derived from it. [ ]: non-standard residue; d: D form. X1 = O=C(c1ccc(CN[*:1])[nH]1)[*:2]

T3 sequence (P11388 whole entry): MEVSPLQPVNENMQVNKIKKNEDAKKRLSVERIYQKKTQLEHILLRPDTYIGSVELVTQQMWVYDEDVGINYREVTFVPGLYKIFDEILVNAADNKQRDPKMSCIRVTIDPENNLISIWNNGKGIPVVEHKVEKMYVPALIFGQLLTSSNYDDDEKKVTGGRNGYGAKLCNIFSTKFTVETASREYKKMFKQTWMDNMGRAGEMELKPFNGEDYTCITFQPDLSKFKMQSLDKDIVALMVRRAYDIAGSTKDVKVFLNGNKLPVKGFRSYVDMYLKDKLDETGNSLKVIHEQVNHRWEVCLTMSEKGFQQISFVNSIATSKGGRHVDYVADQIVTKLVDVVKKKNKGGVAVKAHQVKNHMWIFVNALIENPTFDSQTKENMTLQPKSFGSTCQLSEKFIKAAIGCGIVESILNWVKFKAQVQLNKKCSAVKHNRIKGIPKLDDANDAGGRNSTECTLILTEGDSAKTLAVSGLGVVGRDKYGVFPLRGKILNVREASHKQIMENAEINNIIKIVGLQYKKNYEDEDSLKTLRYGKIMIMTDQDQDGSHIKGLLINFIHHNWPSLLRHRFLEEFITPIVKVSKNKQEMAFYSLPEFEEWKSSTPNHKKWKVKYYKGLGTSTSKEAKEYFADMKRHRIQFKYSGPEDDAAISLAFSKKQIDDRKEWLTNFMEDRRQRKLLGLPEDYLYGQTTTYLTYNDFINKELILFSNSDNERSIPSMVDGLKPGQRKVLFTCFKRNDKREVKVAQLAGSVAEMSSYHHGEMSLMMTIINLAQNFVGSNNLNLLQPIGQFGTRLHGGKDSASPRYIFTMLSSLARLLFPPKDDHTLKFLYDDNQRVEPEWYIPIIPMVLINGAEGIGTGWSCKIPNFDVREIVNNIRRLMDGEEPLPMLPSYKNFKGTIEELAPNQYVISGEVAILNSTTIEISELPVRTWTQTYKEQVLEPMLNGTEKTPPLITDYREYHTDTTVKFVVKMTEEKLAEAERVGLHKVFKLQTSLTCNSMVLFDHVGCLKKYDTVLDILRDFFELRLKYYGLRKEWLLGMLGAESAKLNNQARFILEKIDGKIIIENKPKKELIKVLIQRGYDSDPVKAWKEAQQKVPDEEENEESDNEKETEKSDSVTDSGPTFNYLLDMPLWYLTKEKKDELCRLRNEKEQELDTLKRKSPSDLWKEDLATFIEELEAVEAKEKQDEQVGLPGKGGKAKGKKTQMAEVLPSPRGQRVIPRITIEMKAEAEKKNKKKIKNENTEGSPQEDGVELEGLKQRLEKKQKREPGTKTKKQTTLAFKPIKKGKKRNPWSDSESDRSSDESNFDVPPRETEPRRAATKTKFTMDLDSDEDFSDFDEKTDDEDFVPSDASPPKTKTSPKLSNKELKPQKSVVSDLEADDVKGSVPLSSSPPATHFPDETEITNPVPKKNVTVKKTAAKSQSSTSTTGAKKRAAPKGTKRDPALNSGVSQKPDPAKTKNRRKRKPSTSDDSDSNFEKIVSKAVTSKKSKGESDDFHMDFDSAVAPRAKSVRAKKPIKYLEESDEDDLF
T1 sequence (P20083 whole entry): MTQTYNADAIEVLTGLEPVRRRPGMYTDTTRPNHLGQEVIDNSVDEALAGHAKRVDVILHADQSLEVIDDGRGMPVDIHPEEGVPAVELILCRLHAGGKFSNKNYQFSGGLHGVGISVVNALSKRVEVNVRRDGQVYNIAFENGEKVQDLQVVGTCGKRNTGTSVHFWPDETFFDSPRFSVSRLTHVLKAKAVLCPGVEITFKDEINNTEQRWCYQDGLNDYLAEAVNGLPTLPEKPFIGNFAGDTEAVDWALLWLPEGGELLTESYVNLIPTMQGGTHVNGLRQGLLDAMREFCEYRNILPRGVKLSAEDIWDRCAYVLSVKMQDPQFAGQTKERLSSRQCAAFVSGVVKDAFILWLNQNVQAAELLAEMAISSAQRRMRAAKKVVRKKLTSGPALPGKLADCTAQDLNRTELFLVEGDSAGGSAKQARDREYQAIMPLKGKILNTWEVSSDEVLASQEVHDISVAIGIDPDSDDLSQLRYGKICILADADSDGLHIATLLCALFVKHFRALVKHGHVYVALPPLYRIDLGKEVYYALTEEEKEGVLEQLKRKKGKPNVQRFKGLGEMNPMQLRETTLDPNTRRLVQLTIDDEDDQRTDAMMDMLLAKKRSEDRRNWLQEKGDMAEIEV
T1 sequence (P0AFI2 whole entry): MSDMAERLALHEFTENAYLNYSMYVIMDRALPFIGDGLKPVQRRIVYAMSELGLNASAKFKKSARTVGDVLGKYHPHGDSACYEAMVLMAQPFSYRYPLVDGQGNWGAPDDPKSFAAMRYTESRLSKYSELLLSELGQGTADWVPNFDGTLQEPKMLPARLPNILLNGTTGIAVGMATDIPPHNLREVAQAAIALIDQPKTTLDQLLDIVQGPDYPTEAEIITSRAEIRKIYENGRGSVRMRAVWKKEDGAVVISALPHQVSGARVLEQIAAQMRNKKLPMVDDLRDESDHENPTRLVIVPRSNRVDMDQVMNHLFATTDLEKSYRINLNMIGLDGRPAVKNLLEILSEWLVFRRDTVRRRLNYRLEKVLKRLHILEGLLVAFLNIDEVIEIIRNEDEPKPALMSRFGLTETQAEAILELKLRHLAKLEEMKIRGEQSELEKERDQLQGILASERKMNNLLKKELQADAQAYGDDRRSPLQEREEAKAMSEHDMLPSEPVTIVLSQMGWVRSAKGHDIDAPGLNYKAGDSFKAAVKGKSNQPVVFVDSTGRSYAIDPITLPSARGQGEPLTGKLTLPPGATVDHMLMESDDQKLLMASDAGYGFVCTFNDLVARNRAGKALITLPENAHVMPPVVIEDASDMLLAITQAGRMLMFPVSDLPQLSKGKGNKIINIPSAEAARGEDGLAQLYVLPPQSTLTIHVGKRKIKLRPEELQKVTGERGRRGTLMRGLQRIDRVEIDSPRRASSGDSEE
Wheatgerm topoisomerase I, sequence (A0A3B6RK19 entry or part of it): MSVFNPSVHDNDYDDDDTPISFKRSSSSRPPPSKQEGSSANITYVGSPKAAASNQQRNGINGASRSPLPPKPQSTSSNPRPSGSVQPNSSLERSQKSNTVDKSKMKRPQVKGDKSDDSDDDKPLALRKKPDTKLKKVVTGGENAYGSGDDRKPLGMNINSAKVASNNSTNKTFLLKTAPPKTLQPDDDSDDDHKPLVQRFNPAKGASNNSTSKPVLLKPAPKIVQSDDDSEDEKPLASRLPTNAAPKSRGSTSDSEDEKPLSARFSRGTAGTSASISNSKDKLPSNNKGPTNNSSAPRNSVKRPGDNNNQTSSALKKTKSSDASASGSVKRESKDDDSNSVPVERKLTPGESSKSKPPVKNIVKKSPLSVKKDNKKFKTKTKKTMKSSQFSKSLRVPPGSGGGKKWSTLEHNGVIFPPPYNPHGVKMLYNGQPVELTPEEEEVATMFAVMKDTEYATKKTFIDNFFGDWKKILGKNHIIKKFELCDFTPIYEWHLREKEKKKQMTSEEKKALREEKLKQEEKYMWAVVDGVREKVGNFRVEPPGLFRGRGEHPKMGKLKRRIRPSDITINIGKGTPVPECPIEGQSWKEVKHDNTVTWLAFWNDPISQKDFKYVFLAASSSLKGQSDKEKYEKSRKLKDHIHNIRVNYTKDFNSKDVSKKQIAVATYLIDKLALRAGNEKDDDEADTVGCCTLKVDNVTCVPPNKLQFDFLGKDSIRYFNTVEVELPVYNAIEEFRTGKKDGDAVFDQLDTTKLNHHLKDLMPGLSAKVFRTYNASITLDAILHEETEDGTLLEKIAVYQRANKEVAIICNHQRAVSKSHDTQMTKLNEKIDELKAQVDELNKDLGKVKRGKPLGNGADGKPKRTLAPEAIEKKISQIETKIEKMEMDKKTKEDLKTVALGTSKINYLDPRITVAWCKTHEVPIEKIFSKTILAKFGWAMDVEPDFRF
Method for DNA gyrase W751R A2B2: as §7
Method for HT-29 cells: (§8) Human cell cultures were initiated from frozen cell stocks (the gift of Dr J. Gavrilovic, UEA). […] Both human cell lines form adherent cultures and were maintained at 37° C. in T25 culture vessels as 10 mL cultures in CO2 Independent Media containing 10% foetal bovine serum (EU approved), 4 mM L-glutamine, penicillin/streptomycin (Invitrogen). […] Media was renewed every three days.
(§9) After incubation with MTT and solubilization, the resulting coloured solution is quantified using a scanning spectrophotometer. […] Cell viability was then determined by addition of MTT reagent (20 μL) in each well, as per manufacturer's instructions and incubated for a further 4 hours. Solubilization solution (100 μL) was added per well and the plates incubated overnight at 37° C. The plates were read in a spectrophotometer (scanning from 500-650 nm, signal peak at 570 nm).
Method for HeLa cells: as §8, §9

Regarding `O=C(O)c1cn(C2CC2)c2cc(N3CCNCC3)c(F)cc2c1=O` [Ciprofloxacin], the “Inhibition of DNA-dependent ATPase” value in series [1] was “slow down this ATPase hydrolysis rate of both wild type and mutant enzyme”. Besides, the “DNA-dependent ATPase, W751R mutant (novobiocin, ciprofloxacin)” value in series [2] is “slow down this ATPase hydrolysis rate of both wild type and mutant enzyme”.
Regarding `CC(NC(=O)CNC(=O)CNC(=O)c1ccc(CNC(=O)C(C)NC(=O)CNC(=O)C(N)CCC(N)=O)[nH]1)C(=O)O` (centres unmarked) [Peptide 1] (H-QGA[X1]GGA-OH; configuration not given here), the “Topo IV, D (decatenation reaction) IC50” value on E. coli Topoisomerase IV [3] is “exquisitely sensitive”. For the same compound, the IC50 is less than 10 µM at E. coli Topoisomerase IV [4]; 37 µM in series [5]; 68 µM at DNA gyrase A2B2; more than 200 µM at DNA gyrase W751R A2B2; 68 µM in [7] (Supercoiling (IC50 μM) MG 1655 A2B2, Table 4); less than 75 µM in series [7] (inhibition of supercoiling IC50, [A2B2] 13.2 nM, incubated up to 4 h). The IC50 at Human topoisomerase IIα [9] was less than 20 µM. Also, in series [5] (Table 4), the “ATPase % inhibition at saturation” value came to 15%. The “Cleavage (IC50 μM)” value on DNA gyrase is “inactive”. In addition, the “Topo I Human IC50” value on Human topoisomerase I is “inhibited”. Moreover, the “Topo I Wheatgerm IC50” value in series [6] is given as “inhibited”. Also, in “Solubility”, the “times more soluble than MccB17” value is listed as “at least 20 times”. Moreover, in “Solubility” (water with 2% DMSO), the solubility worked out at 1000 µM (≈ 582 µg/mL). Besides, the “Topo IIα Human, D (decatenation reaction) IC50” value on Human topoisomerase IIα [8] is reported as “exquisitely sensitive”.
With `NCc1nc(C(=O)O)cs1` [deBoc-thiazole], the IC50 is approximately 75 µM in the series with HeLa cells and approximately 15 µM in the series on HT-29 cells. Further, the “IC50 of deBoc-thiazole compared with thiazole compound” value against Human topoisomerase IIα [10] is “no difference to the calculated IC50 values”.
